Experimental data published in US20050171214A1, “Medicament for improving the failure of accommodation” (Fuji Chemical Industry Co., Ltd., priority 2001, published 2005).
Several values for one entry are separate records, joined by “and”; a condition that tells them apart may be missing. Equal entries are not always repeated.

Experiments:
Format in all cases: in vivo, human
VDT workers [1] = experiment: Example 2: pattern visual evoked potentials (P100 amplitude and latency)
Experimental: (§1) As a control, 13 persons who have not been administered astaxanthin and have not worked in a VDT operation were indicated as the A group. 26 VDT workers were divided into two groups at random. The B group (13 persons) was orally administered 5 mg of astaxanthin/day for 4 consecutive weeks while the C group (13 persons) was orally administered a placebo for 4 consecutive weeks. No significant difference was recognized in age among the three groups.
(§2) A double-blind test was conducted for the B and C groups.
(§3) Also, 26 workers were selected who had been engaged in a VDT operation for 4 hours per day, for 5 days (Monday to Friday every week) per week and for a year or more. Their eyes were better than twenty-twenty (20/20). All of them wore eyeglasses for accommodation during the VDT operation.
(§4) A double-blind test was conducted with respect to the VDT workers. The VDT workers were divided into an astaxanthin-administration group (n=13, B group) and placebo-administration group (n=13, C group). There was no difference in age among the three groups (Table 2 shown below).
(§5) An astaxanthin capsule (5 mg/capsule) was orally administrated to each of the B group subjects one time a day 30 minutes before supper.
(§6) All of these measurement items were conducted with each right eye of the subjects at a.m. 9:00-12:00 on a Saturday.
The pattern visual evoked potential was recorded according to the method established by the International Society for Clinical Electrophysiology of Vision to measure one positive peak strength (P100) and the latency (the difference […] between N75 peak and P100 peak).
(§7) The data on before and after administration were analyzed statistically using a paired t-test. Also, the data for the A and B groups and those for the A and C groups were measured in an unpaired test. The probability value is below 0.05 that is considered to be significant.

VDT workers [2] = experiment: Example 2: eye-accommodability (near point minus far point, D'Acomo apparatus), double-blind vs placebo; conditions: mean ± SD, dioptres
Experimental: as §1, §2
Also, 26 workers were selected who had been engaged in a VDT operation for 4 hours per day, for 5 days (Monday to Friday every week) per week and for a year or more. […]
The eye-accommodability was evaluated by measurement of the near and far points.
The near point was measured with a D'Acomo apparatus (binocular opening constant point refraction near point ruler, a product of World Optical Corporation) according to the Uozato et al' method (Uozato H, Nagakawa A, Hirai H, Saishin M: A new near-point ruler using constant dioptric stimulus. Folia Ophthalmol Jpn 1988;39:1247-1248).
The far point was measured in the best-corrected refraction for each of the subjects.
The eye-accommodability (dioptres) was calculated by subtracting the far point (dioptres) from the near point (dioptres).
The data on before and after administration were analyzed statistically using a paired t-test. […]

VDT workers [3] = experiment: Example 2: systemic side effects during 4-week administration; conditions: B group, 5 mg/day orally for 4 weeks
Experimental: as §1, §5

VDT workers [4] = experiment: Example 2: critical flicker fusion (C.F.F. tester)
Experimental: as §1, §2, §3, §4, §5, §6
The critical flicker fusion was determined by decreasing the frequency of the signals at a constant speed using a C.F.F. tester (a product of Yagami Co., Ltd.). There was used the average value of the three times value measured by the individual eyes of the subjects.
as §7

[5] = test system: person having subjective symptoms of eyestrain or working for VDT operation; experiment: Example 1: double-blind accommodability test with an accommodometer, test food vs control food for 4 weeks; conditions: intake of astaxanthin for 4 consecutive weeks; difference not recognized in control group
Text: People satisfying the following selection standards were used as subjects.
(1) A person having subjective symptoms of eyestrain or working for VDT operation, (2) 1.0 or more of both eyes in vision after correction. (3) 35-59 years old, (4) persons who do notusually take any medicines or health foods, (5) a person who can keep in compliance with all the test-related requirements and take the medical examinations stipulated by the test method.
Persons who have retinal disorders or cataracts were excluded from the subjects.
A test food with 5 mg /capsule of astaxanthin and a control food with 0 mg /capsule of astaxanthin were prepared. The test was conducted in a double-blind method.
After completion of the accommodability test for the subjects using an accommodometer by which the change in the refraction value (accommodation reaction) during moving object can be measured continuously and objectively, and accommodation abnormalities including VDT syndrome can be detected clearly.
A person in charge of the test prepared a subjects' name-list stratified by sex and the test results and handed it to a controller. The controller prepared an allocation table separating the subjects into test food group and control food group based on the name list. In addition, the controller stuck each label with a subject's name on the test food or control food according to the allocation table. […]

VDT workers [6] = experiment: Example 2: eyesight at 5 m and 35 cm using a Landolt ring; conditions: B group, 5 mg/day orally for 4 weeks
Experimental: as §3, §4, §5
The eyesight was measured at each distance of 5 m and 35 cm using a Landolt ring.

[7] = B group baseline, n = 13 eye, mean ± SD
[8] = B group, 5 mg/day orally for 4 weeks, n = 13 eye, mean ± SD
[9] = B group, 5 mg/day orally for 4 weeks, vs before administration

Q: Which “PVEP-P100 Amplitude (μV), before administration of astaxanthin” value (VDT workers [1]; [7]) does the source give for CC1=C(/C=C/C(C)=C/C=C/C(C)=C/C=C/C=C(C)/C=C/C=C(C)/C=C/C2=C(C)C(=O)C(O)CC2(C)C)C(C)(C)CC(O)C1=O (stereo not drawn) [astaxanthin, 3,3′-dihydroxy-β,β-carotene-4,4′-dione] here?
A: 5.8±1.7 μV

Q: And the “PVEP-P100 Latency (msec), before administration of astaxanthin” value (VDT workers [1]; [7])?
A: 102.5 ± 6.9 ms

Q: And the “PVEP-P100 Amplitude (μV), after administration of astaxanthin” value (VDT workers [1]; [8])?
A: 5.6±1.6 μV

Q: And the “PVEP-P100 Latency (msec), after administration of astaxanthin” value (VDT workers [1]; [8])?
A: 104 ± 7.4 ms and 104.8 ± 7.4 ms

Q: What about the “Change of amplitude of P100 in pattern visual evoked potentials after administration” value (VDT workers [1]; [9]) of the same compound?
A: did not appreciably change

Q: And the “Change of latency of P100 in pattern visual evoked potentials after administration” value (VDT workers [1]; [9])?
A: did not appreciably change

Q: What about the “Accommodability (D), before administration of astaxanthin” value (VDT workers [2]; B group baseline, n = 13 eye (right eye), p<0.05 lower than non-VDT A group (3.7 ± 1.5)) of the same compound?
A: 2.3 ± 1.4 D

Q: What about the “Accommodability (D), after administration of astaxanthin” value (VDT workers [2]; B group, 5 mg astaxanthin/day orally for 4 consecutive weeks, n = 13 eye, p<0.01 vs before administration) of the same compound?
A: 2.8±1.6 D

Q: What about the Systemic side effects (VDT workers [3]) of the same compound?
A: no systemic side effects were recognized

Q: What about the “CFF (Hz), before administration of astaxanthin” value (VDT workers [4]; [7]) of the same compound?
A: 39.9 ± 5.3 Hz

Q: And the “CFF (Hz), after administration of astaxanthin” value (VDT workers [4]; [8])?
A: 38.4 ± 4.8 Hz

Q: And the “Change of critical flicker fusion after administration” value (VDT workers [4]; [9])?
A: did not (appreciably) change

Q: What about the “Change of eye-accommodability, before vs after intake” value [5] of the same compound?
A: increased in the test food group by a statistically significant difference

Q: What about the “Change of eyesight at distances of 5 m and 35 cm, before vs after administration” value (VDT workers [6]) of the same compound?
A: did not appreciably change
